Assay results reported in ChEMBL document CHEMBL1141975, “The development of potent and selective bisarylmaleimide GSK3 inhibitors” (Bioorg Med Chem Lett, 2005).

Assays:
[1] = biological target: Glycogen synthase kinase-3 (Homo sapiens, UniProt P49840+P49841); assay: Inhibitory concentration against the Glycogen synthase kinase-3; format: protein assay
[2] = biological target: Glycogen synthase kinase-3 beta (Homo sapiens, UniProt P49841); assay: Inhibitory concentration to inhibit Ser396 phosphorylation of tau, a natural substrate of GSK-3 in SY5Y cells; format: functional, cell-based
Homo sapiens [3] = species on record: Homo sapiens; assay: IC50 ratio between CDK4 and GSK-3
Homo sapiens [4] = species on record: Homo sapiens; assay: IC50 ratio between PKCbeta II and GSK-3

Sequence of Glycogen synthase kinase-3 beta (P49841 whole entry): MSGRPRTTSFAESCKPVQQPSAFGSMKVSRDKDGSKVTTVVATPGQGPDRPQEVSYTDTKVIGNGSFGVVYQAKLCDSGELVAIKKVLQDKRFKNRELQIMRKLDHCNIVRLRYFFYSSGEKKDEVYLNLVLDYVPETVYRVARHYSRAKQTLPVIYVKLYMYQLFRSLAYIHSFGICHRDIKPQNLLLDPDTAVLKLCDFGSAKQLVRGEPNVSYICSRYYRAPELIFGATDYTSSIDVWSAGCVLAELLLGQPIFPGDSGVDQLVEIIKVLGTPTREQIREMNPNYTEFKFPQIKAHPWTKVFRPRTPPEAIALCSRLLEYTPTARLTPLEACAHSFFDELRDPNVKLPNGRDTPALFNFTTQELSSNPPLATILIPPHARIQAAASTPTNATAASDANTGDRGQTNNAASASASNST

O=C1NC(=O)C(c2cnc3ccccn23)=C1c1cn2c3c(cccc13)CN(C(=O)C1CCOCC1)CC2
IC50 [1]: 0.8 nM | IC50 [2]: 7.7 nM | Selectivity (Homo sapiens [3]): 2650 | Selectivity (Homo sapiens [4]): 1740

CN(C)C(=O)N1CCn2cc(C3=C(c4cccc5c4OCO5)C(=O)NC3=O)c3cccc(c32)C1
IC50 [1]: 3.2 nM | Selectivity (Homo sapiens [3]): 89 | Selectivity (Homo sapiens [4]): 190

O=C1NC(=O)C(c2cn3c4c(cccc24)CNCC3)=C1c1cccc2c1ccn2CCCO
IC50 [1]: 27 nM | Selectivity (Homo sapiens [3]): 1 | Selectivity (Homo sapiens [4]): 9

O=C1NC(=O)C(c2cnc3cccnn23)=C1c1cn2c3c(cccc13)CNCC2
IC50 [1]: 4.8 nM | Selectivity (Homo sapiens [3]): 15 | Selectivity (Homo sapiens [4]): 133

CC(C)C(=O)N1CCn2cc(C3=C(c4cnc5ccccn45)C(=O)NC3=O)c3cccc(c32)C1
IC50 [1]: 1.8 nM | IC50 [2]: 5 nM | Selectivity (Homo sapiens [3]): 2020 | Selectivity (Homo sapiens [4]): 522

O=C1NC(=O)C(c2cnc3ccccn23)=C1c1cn2c3c(cccc13)CNCC2
IC50 [1]: 12 nM | Selectivity (Homo sapiens [3]): 13 | Selectivity (Homo sapiens [4]): 28

O=C1NC(=O)C(c2cccc3cc[nH]c23)=C1c1cn2c3c(cccc13)CNCC2
IC50 [1]: 150 nM

O=C1NC(=O)C(c2cn3c4c(cccc24)CNCC3)=C1c1ccc2c(c1)COC2
IC50 [1]: 83 nM

O=C1NC(=O)C(c2cnc3ccncn23)=C1c1cn2c3c(cccc13)CNCC2
IC50 [1]: 330 nM | Selectivity (Homo sapiens [3]): 14 | Selectivity (Homo sapiens [4]): 3

CN(C)C(=O)N1CCn2cc(C3=C(c4cnc5ccccn45)C(=O)NC3=O)c3cccc(c32)C1
IC50 [1]: 1.6 nM | Selectivity (Homo sapiens [3]): 907 | Selectivity (Homo sapiens [4]): 635

CC(=O)N1CCn2cc(C3=C(c4cccc5c4OCO5)C(=O)NC3=O)c3cccc(c32)C1
IC50 [1]: 2.5 nM | Selectivity (Homo sapiens [3]): 50 | Selectivity (Homo sapiens [4]): 240

O=C1NC(=O)C(c2cnc3ncccn23)=C1c1cn2c3c(cccc13)CN(C(=O)N1CCCCC1)CC2
IC50 [1]: 1.9 nM | IC50 [2]: 53 nM | Selectivity (Homo sapiens [3]): 10000 | Selectivity (Homo sapiens [4]): > 1060

CC(=O)N1CCn2cc(C3=C(c4cccc5ccsc45)C(=O)NC3=O)c3cccc(c32)C1
IC50 [1]: 19 nM | Selectivity (Homo sapiens [3]): 7 | Selectivity (Homo sapiens [4]): 7

O=C1NC(=O)C(c2cn3c4c(cccc24)CNCC3)=C1c1cccc2c1OCO2
IC50 [1]: 13 nM | Selectivity (Homo sapiens [3]): 2 | Selectivity (Homo sapiens [4]): 103

O=C1NC(=O)C(c2ccn3ncccc23)=C1c1cn2c3c(cccc13)CNCC2
IC50 [1]: 30 nM | Selectivity (Homo sapiens [3]): 10 | Selectivity (Homo sapiens [4]): 18

O=C1NC(=O)C(c2cnc3ccncn23)=C1c1cn2c3c(cccc13)CN(C(=O)N1CCOCC1)CC2
IC50 [1]: 71 nM | Selectivity (Homo sapiens [3]): > 282 | Selectivity (Homo sapiens [4]): > 282

O=C1NC(=O)C(c2cnc3ncccn23)=C1c1cn2c3c(cccc13)CNCC2
IC50 [1]: 120 nM | Selectivity (Homo sapiens [3]): 20 | Selectivity (Homo sapiens [4]): 112

O=C1NC(=O)C(c2cccc3ccsc23)=C1c1cn2c3c(cccc13)CNCC2
IC50 [1]: 45 nM | Selectivity (Homo sapiens [3]): 1 | Selectivity (Homo sapiens [4]): 15

O=C1NC(=O)C(c2cn3c4c(cccc24)CNCC3)=C1c1cccc2c1OCC2
IC50 [1]: 3.3 nM | Selectivity (Homo sapiens [3]): 7 | Selectivity (Homo sapiens [4]): 53

CN(C)C(=O)N1CCn2cc(C3=C(c4ccn5ncccc45)C(=O)NC3=O)c3cccc(c32)C1
IC50 [1]: 4.7 nM | IC50 [2]: 38 nM | Selectivity (Homo sapiens [3]): 370 | Selectivity (Homo sapiens [4]): 235

O=C1NC(=O)C(c2cnc3cnccn23)=C1c1cn2c3c(cccc13)CN(C(=O)N1CCCCC1)CC2
IC50 [1]: 2.1 nM | IC50 [2]: 8.7 nM | Selectivity (Homo sapiens [3]): 8920 | Selectivity (Homo sapiens [4]): > 9500

O=C1NC(=O)C(c2cn3c4c(cccc24)CNCC3)=C1c1ccc2c(c1)OCO2
IC50 [1]: 27 nM | Selectivity (Homo sapiens [3]): 18 | Selectivity (Homo sapiens [4]): 202

O=C1NC(=O)C(c2cnc3ccccn23)=C1c1cn2c3c(cccc13)CN(C(=O)N1CCOCC1)CC2
IC50 [1]: 1.3 nM

O=C1NC(=O)C(c2cncc3ccoc23)=C1c1cn2c3c(cccc13)CNCC2
IC50 [1]: 3.2 nM | Selectivity (Homo sapiens [3]): 6 | Selectivity (Homo sapiens [4]): 54

O=C1NC(=O)C(c2cnc3cnccn23)=C1c1cn2c3c(cccc13)CNCC2
IC50 [1]: 60 nM | Selectivity (Homo sapiens [3]): 19 | Selectivity (Homo sapiens [4]): > 334

O=C1NC(=O)C(c2cn3c4c(cccc24)CNCC3)=C1c1cccc2c1CCO2
IC50 [1]: 130 nM

O=C1NC(=O)C(c2cnc3cccnn23)=C1c1cn2c3c(cccc13)CN(C(=O)N1CCCCC1)CC2 [BISARYLMALEIMIDE 1]
IC50 [1]: 1.6 nM | IC50 [2]: 0.3 nM | Selectivity (Homo sapiens [3]): 1330 | Selectivity (Homo sapiens [4]): 1300

CN(C)C(=O)N1CCn2cc(C3=C(c4cncc5ccoc45)C(=O)NC3=O)c3cccc(c32)C1
IC50 [1]: 1.2 nM | Selectivity (Homo sapiens [3]): 112

CC(=O)N1CCn2cc(C3=C(c4cnc5ccccn45)C(=O)NC3=O)c3cccc(c32)C1
IC50 [1]: 1.9 nM | IC50 [2]: 111 nM | Selectivity (Homo sapiens [3]): 483 | Selectivity (Homo sapiens [4]): 457

O=C1NC(=O)C(c2cn3c4c(cccc24)CNCC3)=C1c1coc2ccccc12
IC50 [1]: 64 nM

O=C1NC(=O)C(c2ccn3ncccc23)=C1c1cn2c3c(cccc13)CN(C(=O)N1CCOCC1)CC2
IC50 [1]: 1.3 nM | Selectivity (Homo sapiens [3]): 1900

O=C1NC(=O)C(c2cnc3ccccn23)=C1c1cn2c3c(cccc13)CN(C(=O)N1CCCCC1)CC2
IC50 [1]: 2 nM | Selectivity (Homo sapiens [3]): 2420 | Selectivity (Homo sapiens [4]): 281

CC(=O)N1CCn2cc(C3=C(c4cncc5ccoc45)C(=O)NC3=O)c3cccc(c32)C1
IC50 [1]: 0.9 nM | Selectivity (Homo sapiens [3]): 60 | Selectivity (Homo sapiens [4]): 422

CC(=O)N1CCn2cc(C3=C(c4cccc5ccoc45)C(=O)NC3=O)c3cccc(c32)C1
IC50 [1]: 1.5 nM | Selectivity (Homo sapiens [3]): 25 | Selectivity (Homo sapiens [4]): 80

CN(C)C(=O)N1CCn2cc(C3=C(c4cccc5ccoc45)C(=O)NC3=O)c3cccc(c32)C1
IC50 [1]: 2.7 nM | Selectivity (Homo sapiens [3]): 35 | Selectivity (Homo sapiens [4]): 89

O=C1NC(=O)C(c2cncc3ccoc23)=C1c1cn2c3c(cccc13)CN(C(=O)N1CCCCC1)CC2
IC50 [1]: 2.1 nM | Selectivity (Homo sapiens [3]): 92 | Selectivity (Homo sapiens [4]): 108

O=C1NC(=O)C(c2cn3c4c(cccc24)CNCC3)=C1c1cccc2occc12
IC50 [1]: 41 nM | Selectivity (Homo sapiens [3]): 1 | Selectivity (Homo sapiens [4]): 39

O=C1NC(=O)C(c2cnc3cnccn23)=C1c1cn2c3c(cccc13)CN(C(=O)N1CCOCC1)CC2
IC50 [1]: 3.2 nM | IC50 [2]: 11 nM | Selectivity (Homo sapiens [3]): 4550 | Selectivity (Homo sapiens [4]): > 6300

Cn1ccc2c(C3=C(c4cn5c6c(cccc46)CNCC5)C(=O)NC3=O)cccc21
IC50 [1]: 33 nM | Selectivity (Homo sapiens [3]): 1 | Selectivity (Homo sapiens [4]): 28

CCC(=O)N1CCn2cc(C3=C(c4cncc5ccoc45)C(=O)NC3=O)c3cccc(c32)C1
IC50 [1]: 1 nM | Selectivity (Homo sapiens [3]): 98 | Selectivity (Homo sapiens [4]): 375

O=C1NC(=O)C(c2cnc3ncccn23)=C1c1cn2c3c(cccc13)CN(C(=O)N1CCOCC1)CC2
IC50 [1]: 1.7 nM | IC50 [2]: 297 nM | Selectivity (Homo sapiens [3]): 8580 | Selectivity (Homo sapiens [4]): > 11800

CC(=O)N1CCn2cc(C3=C(c4cccc5c4OCC5)C(=O)NC3=O)c3cccc(c32)C1
IC50 [1]: 1.1 nM | Selectivity (Homo sapiens [3]): 77 | Selectivity (Homo sapiens [4]): 133

O=C1NC(=O)C(c2cncc3ccoc23)=C1c1cn2c3c(cccc13)CN(C(=O)N1CCOCC1)CC2 [BISARYLMALEIMIDE 2]
IC50 [1]: 0.8 nM | Selectivity (Homo sapiens [3]): 158

O=C1NC(=O)C(c2cn3c4c(cccc24)CNCC3)=C1c1cccc2sccc12
IC50 [1]: 34 nM

O=C1NC(=O)C(c2cccc3ccoc23)=C1c1cn2c3c(cccc13)CNCC2
IC50 [1]: 3.4 nM | Selectivity (Homo sapiens [3]): 5 | Selectivity (Homo sapiens [4]): 183
